Experimental data taken from PubChem BioAssay AID2060601 (Molecular Pharmacology Branch, DTP, NCI, 2025).

System: 874868-142-R-J2-PDC complex spheroids, growth % test/control
Test: Anticancer human tumor 874868-142-R-J2-PDC patient-derived head and neck squamous carcinoma cell line growth inhibition [CLK]
Details: for IC50: curve of first compound; for viability, T/C: stronger effect = lower value
Summary of the method: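 Patient-derived tumor cells grown as complex spheroids with HUVEC endothelial cells and mesenchymal stem cells, treated with drug combinations. Concentrations descend in half-log steps from near clinical Cmax, or from 10 microM if Cmax unknown.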

[1] = second compound 0.0316 µM, first compound 0.0316 µM
[2] = second compound 0.0316 µM, first compound 0.1 µM
[3] = second compound 0.0316 µM, first compound 0.316 µM
[4] = second compound 0.0316 µM, first compound 1 µM
[5] = second compound 0.0316 µM, first compound 3.16 µM
[6] = second compound 0.0316 µM, first compound 10 µM
[7] = second compound 0.1 µM, first compound 0.0316 µM
[8] = second compound 0.1 µM, first compound 0.1 µM
[9] = second compound 0.1 µM, first compound 0.316 µM
[10] = second compound 0.1 µM, first compound 1 µM
[11] = second compound 0.1 µM, first compound 3.16 µM
[12] = second compound 0.1 µM, first compound 10 µM
[13] = second compound 0.316 µM, first compound 0.0316 µM
[14] = second compound 0.316 µM, first compound 0.1 µM
[15] = second compound 0.316 µM, first compound 0.316 µM
[16] = second compound 0.316 µM, first compound 1 µM
[17] = second compound 0.316 µM, first compound 3.16 µM
[18] = second compound 0.316 µM, first compound 10 µM
[19] = second compound 1 µM, first compound 0.0316 µM
[20] = second compound 1 µM, first compound 0.1 µM
[21] = second compound 1 µM, first compound 0.316 µM
[22] = second compound 1 µM, first compound 1 µM
[23] = second compound 1 µM, first compound 3.16 µM
[24] = second compound 1 µM, first compound 10 µM
[25] = second compound 3.16 µM, first compound 0.0316 µM
[26] = second compound 3.16 µM, first compound 0.1 µM
[27] = second compound 3.16 µM, first compound 0.316 µM
[28] = second compound 3.16 µM, first compound 1 µM
[29] = second compound 3.16 µM, first compound 3.16 µM
[30] = second compound 3.16 µM, first compound 10 µM
[31] = second compound 10 µM, first compound 0.0316 µM
[32] = second compound 10 µM, first compound 0.1 µM
[33] = second compound 10 µM, first compound 0.316 µM
[34] = second compound 10 µM, first compound 1 µM
[35] = second compound 10 µM, first compound 3.16 µM
[36] = second compound 10 µM, first compound 10 µM
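Also: spheroids exposed to the compounds for 7 days.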
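For viability, T/C in this document: 100% = DMSO vehicle control viability.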

CC(=O)O[C@H]1C(=O)[C@@]2(C)[C@H]([C@H](OC(=O)c3ccccc3)[C@]3(O)C[C@H](OC(=O)[C@H](O)[C@@H](NC(=O)c4ccccc4)c4ccccc4)C(C)=C1C3(C)C)[C@]1(OC(C)=O)CO[C@@H]1C[C@@H]2O + CN1CCN(c2cc(C(=O)Nc3cc4cc(-c5cnn(C)c5)ccc4cn3)ccn2)CC1
IC50 (second compound 0.0316 µM): < 31.6 nM
IC50 (second compound 0.1 µM): < 31.6 nM
IC50 (second compound 0.316 µM): < 31.6 nM
IC50 (second compound 1 µM): < 31.6 nM
IC50 (second compound 3.16 µM): < 31.6 nM
IC50 (second compound 10 µM): < 31.6 nM
viability, T/C [1]: 26.6%
viability, T/C [2]: 18.9%
viability, T/C [3]: 19.1%
viability, T/C [4]: 22%
viability, T/C [5]: 21.3%
viability, T/C [6]: 27.4%
viability, T/C [7]: 28.1%
viability, T/C [8]: 19.6%
viability, T/C [9]: 20%
viability, T/C [10]: 18.1%
viability, T/C [11]: 14.7%
viability, T/C [12]: 27.9%
viability, T/C [13]: 13%
viability, T/C [14]: 15.6%
viability, T/C [15]: 15.3%
viability, T/C [16]: 9.43%
viability, T/C [17]: 17.7%
viability, T/C [18]: 17.3%
viability, T/C [19]: 0.22%
viability, T/C [20]: 0.23%
viability, T/C [21]: 0.5%
viability, T/C [22]: 0.59%
viability, T/C [23]: 0.23%
viability, T/C [24]: 0.27%
viability, T/C [25]: 0.16%
viability, T/C [26]: 0.16%
viability, T/C [27]: 2.82%
viability, T/C [28]: 0.21%
viability, T/C [29]: 0.18%
viability, T/C [30]: 0.15%
viability, T/C [31]: 0.12%
viability, T/C [32]: 0.18%
viability, T/C [33]: 1.66%
viability, T/C [34]: 0.18%
viability, T/C [35]: 2.53%
viability, T/C [36]: 1.6%

CCc1c2c(nc3ccc(O)cc13)-c1cc3c(c(=O)n1C2)COC(=O)[C@]3(O)CC + CN1CCN(c2cc(C(=O)Nc3cc4cc(-c5cnn(C)c5)ccc4cn3)ccn2)CC1
IC50 (second compound 0.0316 µM): < 3.16 nM
IC50 (second compound 0.1 µM): < 3.16 nM
IC50 (second compound 0.316 µM): < 3.16 nM
IC50 (second compound 1 µM): < 3.16 nM
IC50 (second compound 3.16 µM): < 3.16 nM
IC50 (second compound 10 µM): < 3.16 nM
viability, T/C (second compound 0.0316 µM, first compound 0.00316 µM): 40.3%
viability, T/C (second compound 0.0316 µM, first compound 0.01 µM): 37.1%
viability, T/C [1]: 26.8%
viability, T/C [2]: 16.6%
viability, T/C [3]: 7.13%
viability, T/C [4]: 1.61%
viability, T/C (second compound 0.1 µM, first compound 0.00316 µM): 31.4%
viability, T/C (second compound 0.1 µM, first compound 0.01 µM): 24.2%
viability, T/C [7]: 11.6%
viability, T/C [8]: 8.69%
viability, T/C [9]: 2.29%
viability, T/C [10]: 0.34%
viability, T/C (second compound 0.316 µM, first compound 0.00316 µM): 12.2%
viability, T/C (second compound 0.316 µM, first compound 0.01 µM): 7.89%
viability, T/C [13]: 5.11%
viability, T/C [14]: 1.25%
viability, T/C [15]: 0.46%
viability, T/C [16]: 0.22%
viability, T/C (second compound 1 µM, first compound 0.00316 µM): 0.28%
viability, T/C (second compound 1 µM, first compound 0.01 µM): 0.16%
viability, T/C [19]: 0.25%
viability, T/C [20]: 0.19%
viability, T/C [21]: 0.39%
viability, T/C [22]: 0.11%
viability, T/C (second compound 3.16 µM, first compound 0.00316 µM): 0.18%
viability, T/C (second compound 3.16 µM, first compound 0.01 µM): 0.16%
viability, T/C [25]: 0.32%
viability, T/C [26]: 0.27%
viability, T/C [27]: 0.19%
viability, T/C [28]: 0.11%
viability, T/C (second compound 10 µM, first compound 0.00316 µM): 0.07%
viability, T/C (second compound 10 µM, first compound 0.01 µM): 3.98%
viability, T/C [31]: 0.4%
viability, T/C [32]: 0.15%
viability, T/C [33]: 0.19%
viability, T/C [34]: 0.19%

COc1cccc2c1C(=O)c1c(O)c3c(c(O)c1C2=O)CC(O)(C(=O)CO)CC3OC1CC(N)C(O)C(C)O1 (stereo unspecified) + CN1CCN(c2cc(C(=O)Nc3cc4cc(-c5cnn(C)c5)ccc4cn3)ccn2)CC1
IC50 (second compound 0.0316 µM): 87.3 nM
IC50 (second compound 0.1 µM): 46.7 nM
IC50 (second compound 0.316 µM): < 31.6 nM
IC50 (second compound 1 µM): < 31.6 nM
IC50 (second compound 3.16 µM): < 31.6 nM
IC50 (second compound 10 µM): < 31.6 nM
viability, T/C [1]: 63.8%
viability, T/C [2]: 45.1%
viability, T/C [3]: 28.2%
viability, T/C [4]: 1.26%
viability, T/C [5]: 0.13%
viability, T/C [6]: 0.12%
viability, T/C [7]: 55.6%
viability, T/C [8]: 38.7%
viability, T/C [9]: 20.3%
viability, T/C [10]: 1.08%
viability, T/C [11]: 0.17%
viability, T/C [12]: 0.22%
viability, T/C [13]: 14.6%
viability, T/C [14]: 12.6%
viability, T/C [15]: 3.13%
viability, T/C [16]: 0.26%
viability, T/C [17]: 0.13%
viability, T/C [18]: 0.18%
viability, T/C [19]: 0.21%
viability, T/C [20]: 0.85%
viability, T/C [21]: 0.41%
viability, T/C [22]: 0.34%
viability, T/C [23]: 0.12%
viability, T/C [24]: 0.14%
viability, T/C [25]: 0.22%
viability, T/C [26]: 0.15%
viability, T/C [27]: 2.26%
viability, T/C [28]: 0.14%
viability, T/C [29]: 0.21%
viability, T/C [30]: 0.12%
viability, T/C [31]: 0.07%
viability, T/C [32]: 0.94%
viability, T/C [33]: 0.15%
viability, T/C [34]: 0.12%
viability, T/C [35]: 0.14%
viability, T/C [36]: 0.67%
